Assay results reported in patent US10023570B2 (Array BioPharma, Inc., priority 2015, dated 2018).

Molecular target: human KDR protein in HEK-293 cells (Homo sapiens (Human), UniProt P35968)
Assay: KDR Cell Assay (phospho-KDR in HEK-293 cells expressing inducible KDR)
Type: cell-based
Settings: pKDR Cell HEK 10% FBS IC50
Outline: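 HEK-293 cells with inducible human KDR were treated with compound for 1 h in DMEM (0.25% DMSO final), then lysed. Phospho-KDR was quantified by Meso Scale immunoassay, expressed as percent of control, and IC50 taken where a 4-parameter logistic fit crossed 50 POC.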

human KDR protein in HEK-293 cells, sequence (P35968 20-1356): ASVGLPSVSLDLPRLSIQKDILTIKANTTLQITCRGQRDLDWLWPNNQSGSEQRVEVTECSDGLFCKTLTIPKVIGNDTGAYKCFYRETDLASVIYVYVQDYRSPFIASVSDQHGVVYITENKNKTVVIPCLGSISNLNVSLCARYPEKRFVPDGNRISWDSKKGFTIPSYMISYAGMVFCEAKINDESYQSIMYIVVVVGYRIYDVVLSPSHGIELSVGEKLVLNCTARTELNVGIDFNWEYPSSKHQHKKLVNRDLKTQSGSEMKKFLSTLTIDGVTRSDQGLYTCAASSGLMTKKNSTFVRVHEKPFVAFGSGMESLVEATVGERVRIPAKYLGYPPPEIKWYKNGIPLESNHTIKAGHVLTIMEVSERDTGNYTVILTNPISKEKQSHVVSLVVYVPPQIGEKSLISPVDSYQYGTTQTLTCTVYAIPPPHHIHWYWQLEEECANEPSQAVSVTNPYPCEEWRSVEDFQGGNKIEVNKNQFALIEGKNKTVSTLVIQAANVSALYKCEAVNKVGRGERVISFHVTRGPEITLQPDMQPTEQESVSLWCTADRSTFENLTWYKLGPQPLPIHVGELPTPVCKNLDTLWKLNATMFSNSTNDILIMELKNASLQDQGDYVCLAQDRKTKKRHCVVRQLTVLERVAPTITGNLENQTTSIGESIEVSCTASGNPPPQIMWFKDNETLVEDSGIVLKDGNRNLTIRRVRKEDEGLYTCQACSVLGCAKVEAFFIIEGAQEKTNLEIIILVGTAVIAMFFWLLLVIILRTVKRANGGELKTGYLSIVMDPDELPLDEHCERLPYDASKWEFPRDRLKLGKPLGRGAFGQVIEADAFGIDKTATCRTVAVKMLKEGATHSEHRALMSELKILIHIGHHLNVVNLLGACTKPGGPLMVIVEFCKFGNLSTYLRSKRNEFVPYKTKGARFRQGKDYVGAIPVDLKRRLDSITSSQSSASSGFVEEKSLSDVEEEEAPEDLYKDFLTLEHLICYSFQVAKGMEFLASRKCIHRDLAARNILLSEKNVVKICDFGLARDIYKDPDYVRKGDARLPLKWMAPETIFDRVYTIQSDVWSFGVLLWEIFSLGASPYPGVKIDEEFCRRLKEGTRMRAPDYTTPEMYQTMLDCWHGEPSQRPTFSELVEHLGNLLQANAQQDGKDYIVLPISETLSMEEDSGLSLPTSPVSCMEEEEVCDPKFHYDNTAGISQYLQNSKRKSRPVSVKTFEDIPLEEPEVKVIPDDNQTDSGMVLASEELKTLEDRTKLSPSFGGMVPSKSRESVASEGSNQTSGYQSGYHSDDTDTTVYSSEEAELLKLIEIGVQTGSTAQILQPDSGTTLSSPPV

Structure (SMILES) | IC50 [nM]
CC[C@H](O)CN1CCN(c2ccc(-c3cc(-c4cnn(C)c4)cn4ncc(C#N)c34)cn2)CC1 [Example 150, (S)-4-(6-(4-(2-hydroxybutyl)piperazin-1-yl)pyridin-3-yl)-6-(1-methyl-1H-pyrazol-4-yl)pyrazolo[1,5-a]pyridine-3-carbonitrile] | 728

Same assay, conditions: pKDR Cell HEK 10% FBS IC50, HEK-293 cells expressing inducible KDR, VEGF stimulated, 10% FBS

IC50 [nM] | Structure (SMILES)
606 | Cn1cc(-c2cc(-c3ccc(N4CCN(C(=O)N5CCC(C)(C)C5)CC4)nc3)c3c(C#N)cnn3c2)cn1 [Example 118, 4-(6-(4-(3,3-dimethylpyrrolidine-1-carbonyl)piperazin-1-yl)pyridin-3-yl)-6-(1-methyl-1H-pyrazol-4-yl)pyrazolo[1,5-a]pyridine-3-carbonitrile]
2270 | Cn1cc(-c2cc(-c3ccc(N4CCN(C(=O)N5CCOCC5)CC4)nc3)c3c(C#N)cnn3c2)cn1 [Example 119, 6-(1-methyl-1H-pyrazol-4-yl)-4-(6-(4-(morpholine-4-carbonyl)piperazin-1-yl)pyridin-3-yl)pyrazolo[1,5-a]pyridine-3-carbonitrile]
2240 | CN1CCN(C(=O)N2CCN(c3ccc(-c4cc(-c5cnn(C)c5)cn5ncc(C#N)c45)cn3)CC2)CC1 [Example 120, 6-(1-methyl-1H-pyrazol-4-yl)-4-(6-(4-(4-methylpiperazine-1-carbonyl)piperazin-1-yl)pyridin-3-yl)pyrazolo[1,5-a]pyridine-3-carbonitrile]
1340 | Cn1cc(-c2cc(-c3ccc(N4CCN(C(=O)NC5CCOCC5)CC4)nc3)c3c(C#N)cnn3c2)cn1 [Example 121, 4-(5-(3-cyano-6-(1-methyl-1H-pyrazol-4-yl)pyrazolo[1,5-a]pyridin-4-yl)pyridin-2-yl)-N-(tetrahydro-2H-pyran-4-yl)piperazine-1-carboxamide]
1610 | Cn1cc(-c2cc(-c3ccc(N4CCN(C(=O)N5CC6COCC6C5)CC4)nc3)c3c(C#N)cnn3c2)cn1 (stereo not shown) [Example 123, 4-(6-(4-(hexahydro-1H-furo[3,4-c]pyrrole-5-carbonyl)piperazin-1-yl)pyridin-3-yl)-6-(1-methyl-1H-pyrazol-4-yl)pyrazolo[1,5-a]pyridine-3-carbonitrile]
1860 | Cn1cc(-c2cc(-c3ccc(N4CCN(C(=O)N5CCCC5(C)C)CC4)nc3)c3c(C#N)cnn3c2)cn1 [Example 124, 4-(6-(4-(2,2-dimethylpyrrolidine-1-carbonyl)piperazin-1-yl)pyridin-3-yl)-6-(1-methyl-1H-pyrazol-4-yl)pyrazolo[1,5-a]pyridine-3-carbonitrile]
616 | Cn1cc(-c2cc(-c3ccc(N4CCN(C(=O)N5CCCC5)CC4)nc3)c3c(C#N)cnn3c2)cn1 [Example 125, 6-(1-methyl-1H-pyrazol-4-yl)-4-(6-(4-(pyrrolidine-1-carbonyl)piperazin-1-yl)pyridin-3-yl)pyrazolo[1,5-a]pyridine-3-carbonitrile]
93.5 | Cn1cc(-c2cc(-c3ccc(N4CCN(C(=O)NCc5ccccc5)CC4)nc3)c3c(C#N)cnn3c2)cn1 [Example 129, N-benzyl-4-(5-(3-cyano-6-(1-methyl-1H-pyrazol-4-yl)pyrazolo[1,5-a]pyridin-4-yl)pyridin-2-yl)piperazine-1-carboxamide]
1150 | CN(C)C(=O)N1CCN(c2ccc(-c3cc(-c4cnn(C)c4)cn4ncc(C#N)c34)cn2)CC1 [Example 132, 4-(5-(3-cyano-6-(1-methyl-1H-pyrazol-4-yl)pyrazolo[1,5-a]pyridin-4-yl)pyridin-2-yl)-N,N-dimethylpiperazine-1-carboxamide]
16.1 | Cn1cc(-c2cc(-c3ccc(N4CCN(S(=O)(=O)N5CCCC5)CC4)nc3)c3c(C#N)cnn3c2)cn1 [Example 138, 6-(1-methyl-1H-pyrazol-4-yl)-4-(6-(4-(pyrrolidin-1-ylsulfonyl)piperazin-1-yl)pyridin-3-yl)pyrazolo[1,5-a]pyridine-3-carbonitrile]
289 | Cn1cc(-c2cc(-c3ccc(N4CCN(Cc5ccccc5)CC4)nc3)c3c(C#N)cnn3c2)cn1 [Example 139, 4-(6-(4-benzylpiperazin-1-yl)pyridin-3-yl)-6-(1-methyl-1H-pyrazol-4-yl)pyrazolo[1,5-a]pyridine-3-carbonitrile]
712 | Cn1cc(-c2cc(-c3ccc(N4CCN(CCc5ccc(Cl)cc5)CC4)nc3)c3c(C#N)cnn3c2)cn1 [Example 140, 4-(6-(4-(4-chlorophenethyl)piperazin-1-yl)pyridin-3-yl)-6-(1-methyl-1H-pyrazol-4-yl)pyrazolo[1,5-a]pyridine-3-carbonitrile]
1290 | C[C@H]([C@H](O)c1ccccc1)N1CCN(c2ccc(-c3cc(-c4cnn(C)c4)cn4ncc(C#N)c34)cn2)CC1 [Example 147, 4-(6-(4-((1R,2R)-1-hydroxy-1-phenylpropan-2-yl)piperazin-1-yl)pyridin-3-yl)-6-(1-methyl-1H-pyrazol-4-yl)pyrazolo[1,5-a]pyridine-3-carbonitrile]
563 | C[C@@H]([C@@H](O)c1ccccc1)N1CCN(c2ccc(-c3cc(-c4cnn(C)c4)cn4ncc(C#N)c34)cn2)CC1 [Example 149, 4-(6-(4-((1S,2S)-1-hydroxy-1-phenylpropan-2-yl)piperazin-1-yl)pyridin-3-yl)-6-(1-methyl-1H-pyrazol-4-yl)pyrazolo[1,5-a]pyridine-3-carbonitrile]
207 | Cn1cc(-c2cc(-c3ccc(N4CCN(CC(O)c5ccc(Cl)cc5)CC4)nc3)c3c(C#N)cnn3c2)cn1 (stereo not shown) [Example 152, 4-(6-(4-(2-(4-chlorophenyl)-2-hydroxyethyl)piperazin-1-yl)pyridin-3-yl)-6-(1-methyl-1H-pyrazol-4-yl)pyrazolo[1,5-a]pyridine-3-carbonitrile]
164 | Cn1cc(-c2cc(-c3ccc(N4CCN(C[C@H](O)c5cccc(Cl)c5)CC4)nc3)c3c(C#N)cnn3c2)cn1 [Example 153, (R)-4-(6-(4-(2-(3-chlorophenyl)-2-hydroxyethyl)piperazin-1-yl)pyridin-3-yl)-6-(1-methyl-1H-pyrazol-4-yl)pyrazolo[1,5-a]pyridine-3-carbonitrile]
155 | Cn1cc(-c2cc(-c3ccc(N4CCN(CC(O)c5c(F)cccc5F)CC4)nc3)c3c(C#N)cnn3c2)cn1 (stereo not shown) [Example 154, 4-(6-(4-(2-(2,6-difluorophenyl)-2-hydroxyethyl)piperazin-1-yl)pyridin-3-yl)-6-(1-methyl-1H-pyrazol-4-yl)pyrazolo[1,5-a]pyridine-3-carbonitrile]
979 | Cn1cc(-c2cc(-c3ccc(N4CCN([C@@H]5CCCC[C@H]5O)CC4)nc3)c3c(C#N)cnn3c2)cn1 [Example 155, 4-(6-(4-((1r,2r)-2-hydroxycyclohexyl)piperazin-1-yl)pyridin-3-yl)-6-(1-methyl-1H-pyrazol-4-yl)pyrazolo[1,5-a]pyridine-3-carbonitrile]
1760 | Cn1cc(-c2cc(-c3ccc(N4CCN(CC(C)(C)O)CC4)nc3)c3c(C#N)cnn3c2)cn1 [Example 156, 4-(6-(4-(2-hydroxy-2-methylpropyl)piperazin-1-yl)pyridin-3-yl)-6-(1-methyl-1H-pyrazol-4-yl)pyrazolo[1,5-a]pyridine-3-carbonitrile]
1300 | Cn1cc(-c2cc(-c3ccc(N4CCN([C@@H]5COC[C@H]5O)CC4)nc3)c3c(C#N)cnn3c2)cn1 [Example 159, 4-(6-(4-((3r,4s)-4-hydroxytetrahydrofuran-3-yl)piperazin-1-yl)pyridin-3-yl)-6-(1-methyl-1H-pyrazol-4-yl)pyrazolo[1,5-a]pyridine-3-carbonitrile]
48.5 | Cn1cc(-c2cc(-c3ccc(N4CCN(C[C@H](O)c5ccccc5)CC4)nc3)c3c(C#N)cnn3c2)cn1 [Example 161, (R)-4-(6-(4-(2-hydroxy-2-phenylethyl)piperazin-1-yl)pyridin-3-yl)-6-(1-methyl-1H-pyrazol-4-yl)pyrazolo[1,5-a]pyridine-3-carbonitrile]
42 | Cn1cc(-c2cc(-c3ccc(N4CCN(C[C@@H](O)c5ccccc5)CC4)nc3)c3c(C#N)cnn3c2)cn1 [Example 162, (S)-4-(6-(4-(2-hydroxy-2-phenylethyl)piperazin-1-yl)pyridin-3-yl)-6-(1-methyl-1H-pyrazol-4-yl)pyrazolo[1,5-a]pyridine-3-carbonitrile]
991 | Cn1cc(-c2cc(-c3ccc(N4CCN([C@@H]5CCC[C@H]5O)CC4)nc3)c3c(C#N)cnn3c2)cn1 [Example 163, 4-(6-(4-((1r,2r)-2-hydroxycyclopentyl)piperazin-1-yl)pyridin-3-yl)-6-(1-methyl-1H-pyrazol-4-yl)pyrazolo[1,5-a]pyridine-3-carbonitrile]
73.6 | Cn1cc(-c2cc(-c3ccc(N4CCN(CC(O)c5ccc(F)cc5)CC4)nc3)c3c(C#N)cnn3c2)cn1 (stereo not shown) [Example 164, 4-(6-(4-(2-(4-fluorophenyl)-2-hydroxyethyl)piperazin-1-yl)pyridin-3-yl)-6-(1-methyl-1H-pyrazol-4-yl)pyrazolo[1,5-a]pyridine-3-carbonitrile]
1990 | Cn1cc(-c2cc(-c3ccc(N4CCN(C(=O)OC(C)(C)C)C5(CC5)C4)nc3)c3c(C#N)cnn3c2)cn1 [Example 166, tert-butyl 7-(5-(3-cyano-6-(1-methyl-1H-pyrazol-4-yl)pyrazolo[1,5-a]pyridin-4-yl)pyridin-2-yl)-4,7-diazaspiro[2.5]octane-4-carboxylate]

Structure (SMILES) | IC50 [nM]
Cn1cc(-c2cc(-c3ccc(N4CCN(C(=O)NC5CC5)CC4)nc3)c3c(C#N)cnn3c2)cn1 [Example 131, 4-(5-(3-cyano-6-(1-methyl-1H-pyrazol-4-yl)pyrazolo[1,5-a]pyridin-4-yl)pyridin-2-yl)-N-cyclopropylpiperazine-1-carboxamide 2,2,2-trifluoroacetate] | 447
Cn1cc(-c2cc(-c3ccc(N4CCN(CC(=O)N5CCCC5)CC4)nc3)c3c(C#N)cnn3c2)cn1 [Example 145, 6-(1-methyl-1H-pyrazol-4-yl)-4-(6-(4-(2-oxo-2-(pyrrolidin-1-yl)ethyl)piperazin-1-yl)pyridin-3-yl)pyrazolo[1,5-a]pyridine-3-carbonitrile 2,2,2-trifluoroacetate] | 682
